Source: patent publication US7811797B2, “α-isomaltosylglucosaccharide-forming enzyme, process and uses of the same” (Kabushiki Kaisha Hayashibara Seibutsu Kagaku Kenkyujo, priority 2000, dated 2010)

Columns and labels:
Parameters in all cases: key: −: it showed no change; +: it showed a slight reduction of the color spot of the substrate and the formation of other reaction product; ++: it showed a high reduction of the color spot of the substrate and the formation of other reaction product; +++: it showed a substantial disappearance of the substrate spot and the formation of other reaction product
[1] = system: α-isomaltosylglucosaccharide-forming enzyme; assay: Action on saccharides (substrates), Enzyme of Strain C9; type: biochemical, Bacillus globisporus C9; conditions: two units/g substrate, substrate 2% (w/v), 30° C., pH 6.0, 24 hours, TLC
Protocol: (§1) It was tested whether saccharides can be used as substrates for the α-isomaltosylglucosaccharide-forming enzyme. For the purpose, a solution of maltose, maltotriose, maltotetraose, maltopentaose, maltohexaose, maltoheptaose, isomaltose, isomaltotriose, panose, isopanose, trehalose, kojibiose, nigerose, neotrehalose, cellobiose, gentibiose, maltitol, maltotriitol, lactose, sucrose, erlose, selaginose, maltosyl glucoside, or isomaltosyl glucoside was prepared.
(§2) To each of the above solutions was added two units/g substrate of a purified specimen of α-isomaltosylglucosaccharide-forming enzyme from either Bacillus globisporus C9 obtained by the method in Experiment 4-2, Bacillus globisporus C11 obtained by the method in Experiment 7-2, Bacillus globisporus N75 obtained by the method in Experiment 11-2, or Arthrobacter globiformis A19 obtained by the method in Experiment 15-2, and the resulting each solution was adjusted to give a substrate concentration of 2% (w/v) and incubated at 30° C. and pH 6.0, except for using pH 8.4 for the enzyme from Arthrobacter globiformis A19, for 24 hours. The enzyme solutions before and after the enzymatic reactions were respectively analyzed on TLC disclosed in Experiment 1 to confirm whether the enzymes acted on these substrates.

[2] = system: α-isomaltosylglucosaccharide-forming enzyme; assay: Action on saccharides (substrates), Enzyme of Strain C11; type: biochemical, Bacillus globisporus C11; conditions: two units/g substrate, substrate 2% (w/v), 30° C., pH 6.0, 24 hours, TLC
Protocol: as §1, §2

[3] = system: α-isomaltosylglucosaccharide-forming enzyme; assay: Action on saccharides (substrates), Enzyme of Strain N75; type: biochemical, Bacillus globisporus N75; conditions: two units/g substrate, substrate 2% (w/v), 30° C., pH 6.0, 24 hours, TLC
Protocol: as §1, §2

[4] = system: α-isomaltosylglucosaccharide-forming enzyme; assay: Action on saccharides (substrates), Enzyme of Strain A19; type: biochemical, Arthrobacter globiformis A19; conditions: two units/g substrate, substrate 2% (w/v), 30° C., pH 8.4, 24 hours, TLC
Protocol: as §1, §2

With `OC[C@H]1O[C@@](CO)(O[C@H]2O[C@H](CO)[C@@H](O[C@H]3O[C@H](CO)[C@@H](O)[C@H](O)[C@H]3O)[C@H](O)[C@H]2O)[C@@H](O)[C@@H]1O` [Erlose] the “Enzymatic action, Enzyme of Strain C9” value [1] was “+”, the “Enzymatic action, Enzyme of Strain C11” value [2] was “+” and the “Enzymatic action, Enzyme of Strain N75” value [3] was “+”. For the same molecule, the “Enzymatic action, Enzyme of Strain A19” value [4] was “+”.

With `OC[C@H]1O[C@H](O[C@H]2[C@H](O)[C@@H](O)[C@@H](OC[C@H]3OC(O)[C@H](O)[C@@H](O)[C@@H]3O)O[C@@H]2CO)[C@H](O)[C@@H](O)[C@@H]1O` (stereo partly shown) [Isopanose] the “Enzymatic action, Enzyme of Strain C9” value [1] was “++”, the “Enzymatic action, Enzyme of Strain C11” value [2] was “++” and the “Enzymatic action, Enzyme of Strain N75” value [3] was “++”. The “Enzymatic action, Enzyme of Strain A19” value [4] was “++”.

For `OC[C@H]1O[C@H](O[C@H]2C(O)O[C@H](CO)[C@@H](O)[C@@H]2O)[C@H](O)[C@@H](O)[C@@H]1O` (stereo partly shown) [Kojibiose], the “Enzymatic action, Enzyme of Strain C9” value [1] was “+”, the “Enzymatic action, Enzyme of Strain C11” value [2] was “+” and the “Enzymatic action, Enzyme of Strain N75” value [3] was “+”. The “Enzymatic action, Enzyme of Strain A19” value [4] was “+”.

For `OC[C@H]1O[C@H](O[C@H]2[C@H](O)[C@@H](O)[C@H](O)O[C@@H]2CO)[C@H](O)[C@@H](O)[C@@H]1O` [Maltose], the “Enzymatic action, Enzyme of Strain C9” value [1] was “+”, the “Enzymatic action, Enzyme of Strain C11” value [2] was “+” and the “Enzymatic action, Enzyme of Strain N75” value [3] was “+”. For the same molecule, the “Enzymatic action, Enzyme of Strain A19” value [4] was “+”.

With `OC[C@H]1O[C@H](O[C@H]2O[C@H](CO)[C@@H](O[C@H]3O[C@H](CO)[C@@H](O)[C@H](O)[C@H]3O)[C@H](O)[C@H]2O)[C@H](O)[C@@H](O)[C@@H]1O` [Maltosyl glucoside] the “Enzymatic action, Enzyme of Strain C9” value [1] was “++”, the “Enzymatic action, Enzyme of Strain C11” value [2] was “++” and the “Enzymatic action, Enzyme of Strain N75” value [3] was “++”. For the same molecule, the “Enzymatic action, Enzyme of Strain A19” value [4] was “++”.

With `OC[C@H]1O[C@H](O[C@H]2[C@H](O)[C@@H](O)[C@@H](O[C@H]3[C@H](O)[C@@H](O)[C@@H](O[C@H]4[C@H](O)[C@@H](O)C(O)O[C@@H]4CO)O[C@@H]3CO)O[C@@H]2CO)[C@H](O)[C@@H](O)[C@@H]1O` (stereo partly shown) [Maltotetraose] the “Enzymatic action, Enzyme of Strain C9” value [1] was “+++”, the “Enzymatic action, Enzyme of Strain C11” value [2] was “+++” and the “Enzymatic action, Enzyme of Strain N75” value [3] was “+++”. The “Enzymatic action, Enzyme of Strain A19” value [4] was “+++”.

For `OC[C@@H](O)[C@@H](O[C@H]1O[C@H](CO)[C@@H](O[C@H]2O[C@H](CO)[C@@H](O)[C@H](O)[C@H]2O)[C@H](O)[C@H]1O)[C@H](O)[C@@H](O)CO` [Maltotriitol], the “Enzymatic action, Enzyme of Strain C9” value [1] was “+”, the “Enzymatic action, Enzyme of Strain C11” value [2] was “+” and the “Enzymatic action, Enzyme of Strain N75” value [3] was “+”. The “Enzymatic action, Enzyme of Strain A19” value [4] was “+”.

`OC[C@H]1O[C@@H](O[C@H]2O[C@H](CO)[C@@H](O)[C@H](O)[C@H]2O)[C@H](O)[C@@H](O)[C@@H]1O` [Neotrehalose] was tested, and the “Enzymatic action, Enzyme of Strain C9” value [1] was “+”, the “Enzymatic action, Enzyme of Strain C11” value [2] was “+” and the “Enzymatic action, Enzyme of Strain N75” value [3] was “+”. The “Enzymatic action, Enzyme of Strain A19” value [4] was “+”.

`OC[C@H]1O[C@H](O[C@H]2[C@H](O)[C@@H](CO)OC(O)[C@@H]2O)[C@H](O)[C@@H](O)[C@@H]1O` (stereo partly shown) [Nigerose] was tested, and the “Enzymatic action, Enzyme of Strain C9” value [1] was “+”, the “Enzymatic action, Enzyme of Strain C11” value [2] was “+” and the “Enzymatic action, Enzyme of Strain N75” value [3] was “+”. For the same molecule, the “Enzymatic action, Enzyme of Strain A19” value [4] was “+”.

In the case of `OC[C@H]1O[C@H](OC[C@H]2O[C@H](O[C@H]3[C@H](O)[C@@H](O)C(O)O[C@@H]3CO)[C@H](O)[C@@H](O)[C@@H]2O)[C@H](O)[C@@H](O)[C@@H]1O` (stereo partly shown) [Panose], the “Enzymatic action, Enzyme of Strain C9” value [1] is reported as “−”, the “Enzymatic action, Enzyme of Strain C11” value [2] is reported as “−” and the “Enzymatic action, Enzyme of Strain N75” value [3] is reported as “−”. For the same molecule, the “Enzymatic action, Enzyme of Strain A19” value [4] was “−”.

With `OC[C@H]1O[C@H](O[C@H]2O[C@H](CO)[C@@H](O)[C@H](O)[C@H]2O[C@H]2O[C@H](CO)[C@@H](O)[C@H](O)[C@H]2O)[C@H](O)[C@@H](O)[C@@H]1O` [Selaginose] the “Enzymatic action, Enzyme of Strain C9” value [1] was “−”, the “Enzymatic action, Enzyme of Strain C11” value [2] was “−” and the “Enzymatic action, Enzyme of Strain N75” value [3] was “−”. The “Enzymatic action, Enzyme of Strain A19” value [4] was “−”.

In the case of Isomaltosyl glucoside, the “Enzymatic action, Enzyme of Strain C9” value [1] is reported as “−”, the “Enzymatic action, Enzyme of Strain C11” value [2] is reported as “−” and the “Enzymatic action, Enzyme of Strain N75” value [3] is reported as “−”. For the same molecule, the “Enzymatic action, Enzyme of Strain A19” value [4] was “−”.

With Maltoheptaose the “Enzymatic action, Enzyme of Strain C9” value [1] was “+++”, the “Enzymatic action, Enzyme of Strain C11” value [2] was “+++” and the “Enzymatic action, Enzyme of Strain N75” value [3] was “+++”. The “Enzymatic action, Enzyme of Strain A19” value [4] was “+++”.

For Maltohexaose, the “Enzymatic action, Enzyme of Strain C9” value [1] was “+++”, the “Enzymatic action, Enzyme of Strain C11” value [2] was “+++” and the “Enzymatic action, Enzyme of Strain N75” value [3] was “+++”. For the same molecule, the “Enzymatic action, Enzyme of Strain A19” value [4] was “+++”.

With Maltopentaose the “Enzymatic action, Enzyme of Strain C9” value [1] was “+++”, the “Enzymatic action, Enzyme of Strain C11” value [2] was “+++” and the “Enzymatic action, Enzyme of Strain N75” value [3] was “+++”. For the same molecule, the “Enzymatic action, Enzyme of Strain A19” value [4] was “+++”.

For Maltotriose, the “Enzymatic action, Enzyme of Strain C9” value [1] was “++”, the “Enzymatic action, Enzyme of Strain C11” value [2] was “++” and the “Enzymatic action, Enzyme of Strain N75” value [3] was “++”. For the same molecule, the “Enzymatic action, Enzyme of Strain A19” value [4] was “++”.
